From US20240269139A1, “COMPOUNDS FOR TARGETED PROTEIN DEGRADATION OF KINASES” (DANA-FARBER CANCER INSTITUTE, INC., priority 2020, published 2024)
Read-outs that look alike come from different tables or passages of the source.

Experiments:
Format in all cases: cell-based
[1] = target: protein kinases (human kinome) (Homo sapiens, UniProt P16591); conditions: FER P16591-1; experiment wp160; 4 hr
[2] = target: protein kinases (human kinome) (Homo sapiens, UniProt P30291); conditions: for logFC of WEE1: WEE1 P30291-1
[3] = target: protein kinases (human kinome) (Homo sapiens, UniProt Q2M2I8)
[4] = system: protein kinases (human kinome); conditions: for logFC ABL1: ABL1 (P00519-2); for logFC / logFC AURKB: AURKB Q96GD4-5

Sequence of protein kinases (human kinome) (Homo sapiens, UniProt Q2M2I8) (Q2M2I8 whole entry): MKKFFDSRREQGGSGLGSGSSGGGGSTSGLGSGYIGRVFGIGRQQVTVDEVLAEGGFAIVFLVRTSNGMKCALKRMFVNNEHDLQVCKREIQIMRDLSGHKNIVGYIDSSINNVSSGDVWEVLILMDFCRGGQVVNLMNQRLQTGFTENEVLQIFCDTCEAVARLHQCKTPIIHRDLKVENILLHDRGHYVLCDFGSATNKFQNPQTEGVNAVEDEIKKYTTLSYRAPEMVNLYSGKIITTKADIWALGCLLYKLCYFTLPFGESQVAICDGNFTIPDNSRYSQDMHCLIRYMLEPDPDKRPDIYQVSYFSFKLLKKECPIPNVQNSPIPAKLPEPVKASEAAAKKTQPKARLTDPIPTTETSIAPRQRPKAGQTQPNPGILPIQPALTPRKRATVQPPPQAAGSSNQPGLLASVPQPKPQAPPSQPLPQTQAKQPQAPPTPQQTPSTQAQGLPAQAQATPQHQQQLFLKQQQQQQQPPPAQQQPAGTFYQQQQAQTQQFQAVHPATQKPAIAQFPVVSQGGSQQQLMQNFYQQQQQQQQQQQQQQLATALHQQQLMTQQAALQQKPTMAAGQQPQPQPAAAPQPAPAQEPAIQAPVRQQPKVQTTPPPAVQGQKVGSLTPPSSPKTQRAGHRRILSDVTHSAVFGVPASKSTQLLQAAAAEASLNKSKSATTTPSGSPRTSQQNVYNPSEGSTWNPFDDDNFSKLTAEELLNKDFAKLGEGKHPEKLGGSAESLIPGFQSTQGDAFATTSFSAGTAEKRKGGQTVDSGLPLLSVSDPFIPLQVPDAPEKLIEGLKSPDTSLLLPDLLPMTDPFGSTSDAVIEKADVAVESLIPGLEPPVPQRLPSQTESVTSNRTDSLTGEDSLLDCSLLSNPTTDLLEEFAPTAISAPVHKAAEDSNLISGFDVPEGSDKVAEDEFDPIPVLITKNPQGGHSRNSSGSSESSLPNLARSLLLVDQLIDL
Sequence of protein kinases (human kinome) (Homo sapiens, UniProt P30291) (P30291 whole entry): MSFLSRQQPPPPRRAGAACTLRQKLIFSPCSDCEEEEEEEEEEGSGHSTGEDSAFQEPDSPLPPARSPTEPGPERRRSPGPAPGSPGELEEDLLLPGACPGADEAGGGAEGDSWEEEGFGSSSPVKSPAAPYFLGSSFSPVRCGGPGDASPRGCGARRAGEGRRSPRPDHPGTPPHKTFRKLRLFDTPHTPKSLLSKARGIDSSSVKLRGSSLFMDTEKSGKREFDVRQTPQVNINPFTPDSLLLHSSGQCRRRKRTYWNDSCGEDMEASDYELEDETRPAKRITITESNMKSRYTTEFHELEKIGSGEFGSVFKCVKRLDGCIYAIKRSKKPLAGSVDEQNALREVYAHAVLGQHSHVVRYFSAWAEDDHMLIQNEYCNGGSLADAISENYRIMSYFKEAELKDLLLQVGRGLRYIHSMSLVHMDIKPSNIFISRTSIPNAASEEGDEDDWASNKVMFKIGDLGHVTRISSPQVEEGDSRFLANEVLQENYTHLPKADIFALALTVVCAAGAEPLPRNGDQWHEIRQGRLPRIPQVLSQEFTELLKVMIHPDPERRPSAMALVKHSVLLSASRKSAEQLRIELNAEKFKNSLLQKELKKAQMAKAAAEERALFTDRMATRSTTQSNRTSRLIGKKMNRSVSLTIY
Sequence of protein kinases (human kinome) (Homo sapiens, UniProt P16591) (P16591 whole entry): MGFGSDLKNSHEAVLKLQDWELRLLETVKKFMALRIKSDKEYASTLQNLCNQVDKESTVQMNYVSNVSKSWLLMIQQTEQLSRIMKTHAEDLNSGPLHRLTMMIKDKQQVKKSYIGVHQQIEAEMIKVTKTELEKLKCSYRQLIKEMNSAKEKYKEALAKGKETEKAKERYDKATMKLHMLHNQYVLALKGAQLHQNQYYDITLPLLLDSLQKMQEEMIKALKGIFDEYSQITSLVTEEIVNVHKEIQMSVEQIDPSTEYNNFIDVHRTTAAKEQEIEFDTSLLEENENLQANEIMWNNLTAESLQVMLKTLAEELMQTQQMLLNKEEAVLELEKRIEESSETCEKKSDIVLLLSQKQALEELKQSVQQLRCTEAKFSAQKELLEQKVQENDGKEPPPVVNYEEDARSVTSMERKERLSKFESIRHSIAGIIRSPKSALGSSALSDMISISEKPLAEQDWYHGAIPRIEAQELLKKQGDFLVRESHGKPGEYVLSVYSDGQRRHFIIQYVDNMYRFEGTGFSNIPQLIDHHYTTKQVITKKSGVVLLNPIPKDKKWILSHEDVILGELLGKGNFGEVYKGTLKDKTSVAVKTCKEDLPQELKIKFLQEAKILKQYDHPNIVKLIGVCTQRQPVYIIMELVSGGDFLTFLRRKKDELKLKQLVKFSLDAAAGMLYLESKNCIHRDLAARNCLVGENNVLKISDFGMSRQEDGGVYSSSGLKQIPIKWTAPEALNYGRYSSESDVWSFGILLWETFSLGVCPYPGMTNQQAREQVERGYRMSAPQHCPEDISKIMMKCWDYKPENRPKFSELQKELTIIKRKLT

In the case of CC(C)S(=O)(=O)c1ccccc1Nc1nc(Nc2ccc(N3CCN(CCOCCNC(=O)CNc4cccc5c4C(=O)N(C4CCC(=O)NC4=O)C5=O)CC3)cc2)ncc1Cl (centres unmarked) [SK.3.91], the “logFC of FER” value [1] is reported as −1.987, the “logFC WEE1 (P30291-1)” value ([2]; Experiment wp160, 2 hr) is reported as −1.201 and the “logFC WEE1 (P30291-1)” value ([2]; Experiment wp172) is reported as −0.6853. The “logFC of WEE1” value ([2]; experiment wp103) was −1.371, the “logFC of WEE1” value ([2]; experiment wp105) was −1.229 and the “logFC of WEE1” value ([2]; experiment wp107) was −2.329. The “logFC of WEE1” value ([2]; experiment wp133, 1 hr) was −0.4866, the “logFC of WEE1” value ([2]; experiment wp133, 2 hr) was −1.21 and the “logFC of WEE1” value ([2]; experiment wp133, 4 hr) was −2.314. The “logFC of WEE1” value ([2]; experiment wp160, 1 hr) was −0.5503, the “logFC of WEE1” value ([2]; experiment wp160, 2 hr) was −1.201 and the “logFC of WEE1” value ([2]; experiment wp160, 4 hr) was −1.994. For the same compound, the “logFC of WEE1” value ([2]; experiment wp172) was −0.6853, the “logFC WEE1 (P30291-1)” value ([2]; experiment wp016) was −1.278 and the “logFC WEE1 (P30291-1)” value ([2]; experiment wp016, 1 uM) was −2.684. For the same compound, the “logFC WEE1 (P30291-1)” value ([2]; experiment wp103) was −1.371, the “logFC WEE1 (P30291-1)” value ([2]; experiment wp105) was −1.229 and the “logFC WEE1 (P30291-1)” value ([2]; experiment wp107) was −2.329. The “logFC WEE1 (P30291-1)” value ([2]; experiment wp133, 1 hr) was −0.4866, the “logFC WEE1 (P30291-1)” value ([2]; experiment wp133, 2 hr) was −1.21 and the “logFC WEE1 (P30291-1)” value ([2]; experiment wp133, 4 hr) was −2.314. For the same compound, the “logFC WEE1 (P30291-1)” value ([2]; experiment wp160, 1 hr) was −0.5503, the “logFC WEE1 (P30291-1)” value ([2]; experiment wp160, 4 hr) was −1.994 and the “logFC AAK1” value ([3]; AAK1 (Q2M218-1), experiment wp016, 1 uM, down) was −1.114. The “logFC AAK1” value ([3]; AAK1 (Q2M218-1), experiment wp016, down) was −1.364, the “logFC AAK1” value ([3]; AAK1 (Q2M218-1), experiment wp103, down) was −0.7763 and the “logFC AAK1” value ([3]; AAK1 (Q2M218-1), experiment wp105, down) was −1.575. For the same compound, the “logFC AAK1” value ([3]; AAK1 (Q2M218-1), experiment wp107, down) was −1.059, the “logFC AAK1” value ([3]; AAK1 (Q2M218-1), experiment wp114, down) was −0.8221 and the “logFC AAK1” value ([3]; AAK1 (Q2M218-1), experiment wp133, 2 hr, down) was −0.5506. For the same compound, the “logFC AAK1” value ([3]; AAK1 (Q2M218-1), experiment wp133, 4 hr, down) was −1.105, the “logFC AAK1” value ([3]; AAK1 (Q2M218-1), experiment wp160, 2 hr, down) was −0.5153 and the “logFC AAK1” value ([3]; AAK1 (Q2M218-1), experiment wp160, 4 hr, down) was −1.008. For the same compound, the “logFC AAK1” value ([3]; AAK1 (Q2M218-1), experiment wp172, down) was −0.9755, the “logFC AAK1” value ([3]; AAK1, accession Q2M218-1, experiment wp016, 1 uM, direction of change down) was −1.114 and the “logFC AAK1” value ([3]; AAK1, accession Q2M218-1, experiment wp016, direction of change down) was −1.364. The “logFC AAK1” value ([3]; AAK1, accession Q2M218-1, experiment wp103, direction of change down) was −0.7763, the “logFC AAK1” value ([3]; AAK1, accession Q2M218-1, experiment wp105, direction of change down) was −1.575 and the “logFC AAK1” value ([3]; AAK1, accession Q2M218-1, experiment wp107, direction of change down) was −1.059. The “logFC AAK1” value ([3]; AAK1, accession Q2M218-1, experiment wp114, direction of change down) was −0.8221, the “logFC AAK1” value ([3]; AAK1, accession Q2M218-1, experiment wp133, 2 hr, direction of change down) was −0.5506 and the “logFC AAK1” value ([3]; AAK1, accession Q2M218-1, experiment wp133, 4 hr, direction of change down) was −1.105. The “logFC AAK1” value ([3]; AAK1, accession Q2M218-1, experiment wp160, 2 hr, direction of change down) was −0.5153, the “logFC AAK1” value ([3]; AAK1, accession Q2M218-1, experiment wp160, 4 hr, direction of change down) was −1.008 and the “logFC AAK1” value ([3]; AAK1, accession Q2M218-1, experiment wp172, direction of change down) was −0.9755. For the same compound, the “logFC ABL1” value ([4]; experiment wp016, 1 uM) was −0.3875, the “logFC ABL1” value ([4]; experiment wp105) was −0.333 and the “logFC ABL1” value ([4]; experiment wp107) was −0.4711. For the same compound, the “logFC ABL1” value ([4]; experiment wp133, 4 hr) was −0.3801, the logFC ([4]; experiment wp103) was −0.3966 and the “logFC AURKB” value ([4]; experiment wp103) was −0.3966. The logFC ([4]; experiment wp105) was −0.7004, the “logFC AURKB” value ([4]; experiment wp105) was −0.7004 and the logFC ([4]; experiment wp107) was −0.443. The “logFC AURKB” value ([4]; experiment wp107) was −0.443 and the logFC ([4]; experiment wp133, 1 hr) was −0.4923.
